According to article PMC5342692, “Hyperosmotic treatment synergistically boost efficiency of cell-permeable peptides” (Oncotarget, 2016):
Read-outs that look alike come from different tables or passages of the source. No end group written: not given here.

Columns and labels:
A549 and Siha cells = type: cell-based, human
Protocol: (§1) HeLa, Siha, Caski, HepG2, A549 or B16 cells (density: 5 × 10^5 cells per well) were seeded into 24-well-plates (Greiner, Germany) and cultivated in RPMI-1640 medium for 24 h. Before the 10 μM FITC-labeled peptides addition, cells were washed with phosphate-buffered saline (0.1 M PBS, pH 7.4) for 3 times. After internalization for 1 h at 37°C, cells were washed 3 times with PBS, and then observed under fluorescence microscope (Nikon, Japan) using a bandpass filter (detects FITC). In some experiments, cell was pretreated with 5% (v/v %) of DMSO in serum-free medium.

Caski cells [1] = experiment: Fluorescent quantitation of FITC-labeled peptide uptake; type: cell-based, human; conditions: for intracellular fluorescence intensity of FITC-labeled CPPs with GSM combination: Caski cells co-incubated with glucose, sucrose and manntiol, fluorescence quantitation (Figure 6A)
Protocol: Before the 10 μM FITC-labeled peptides addition, cells were washed with phosphate-buffered saline (0.1 M PBS, pH 7.4) for 3 times. After internalization for 1 h at 37°C, cells were washed 3 times with PBS, and then observed under fluorescence microscope (Nikon, Japan) using a bandpass filter (detects FITC). In some experiments, cell was pretreated with 5% (v/v %) of DMSO in serum-free medium.
Intracellular fluorescence intensity of cells can be quantified using quantitative analysis by Multimode Spectrophotometry (Tecan 2000, Mannedorf, Switzerland). Briefly, after peptide incubation procedure shown above, cells were washed 3 times with PBS, lysed by 0.1 M NaOH at room temperature, and then centrifuged at 14000 g for 5 min. […] The fluorescence of cellular uptake is expressed as fluorescence intensity per mg of total cellular protein (protein concentration were determined using Bradford protein assay). All experiments were repeated at least three times and always performed in triplicate.

Caski cells [2] = system: Caski cells
Protocol: as §1

Caski cells [3] = experiment: MTT cell viability analysis; conditions: glycerol (30 mM) and glycine (15 mM) together
Protocol: MTT assay was used to assess cell viability. Briefly, cells (4 × 10^4 cells) were seeded in one well of 96-well plates and cultivated in an RPMI-1640 medium for 24 h. Cells were washed with PBS and then adding different concentrations of supplements with a serum-free medium, incubated for 2 h at 37°C and washed with PBS twice, then incubated with fresh medium containing serum for 24 h. Then, 20 μl of MTT (5.5 mg/ml) in serum-free media was added directly to each well and incubated for 4 h at 37°C. Removing the supernatant and then adding 100 μl of DMSO, and incubated at 37°C for another 30 min before quantifying the absorbance at 550 nm.

HepG2 cells = experiment: Fluorescent quantitation of FITC-labeled peptide uptake; conditions: HepG2 cells co-incubated with glucose, sucrose and manntiol; fluorescence quantitation (Figure 6B)
Protocol: as §1
Intracellular fluorescence intensity of cells can be quantified using quantitative analysis by Multimode Spectrophotometry (Tecan 2000, Mannedorf, Switzerland). Briefly, after peptide incubation procedure shown above, cells were washed 3 times with PBS, lysed by 0.1 M NaOH at room temperature, and then centrifuged at 14000 g for 5 min. The fluorescence intensity of the supernatant was measured at the wavelength of 494/518 nm in a Multimode Microplate Reader. The fluorescence of cellular uptake is expressed as fluorescence intensity per mg of total cellular protein (protein concentration were determined using Bradford protein assay). All experiments were repeated at least three times and always performed in triplicate.

[4] = glycerol and glycine combination or separately, fluorescence quantitation (Figure 4D)

YGRKKRRQRRRK [TAT-FITC]
TAT uptake with glucose and manntiol in different cell lines (A549 and Siha cells): enhance the penetration of TAT uptake
TAT penetration efficiency at different temperatures (Caski cells [1]; 4 and 37°C, GSM combination (Figure 7B)): decreased at lower temperatures
TAT penetration with GSM combination, effect of washing method (Caski cells [1]; PBS washing vs 0.025% trypsin washing (Supplementary Figure S3)): no difference between PBS washing and 0.025% trypsin washing method
TAT-FITC uptake with glucose and manntiol combination (Caski cells [1]; co-incubated with glucose and manntiol (100 to 300 mM) 1 h, then TAT-FITC 1 h at 37°C, fluorescence quantitation (Figure 3B)): improved
TAT-FITC uptake with glucose and sucrose combination (Caski cells [1]; co-incubated with glucose and sucrose (100 to 300 mM) 1 h, then TAT-FITC 1 h at 37°C, fluorescence quantitation (Figure 3A)): improved
TAT-FITC uptake with GSM combination (Caski cells [1]; co-incubated with glucose, sucrose and manntiol (50 to 300 mM) 1 h, then TAT-FITC 1 h at 37°C, fluorescence quantitation (Figure 3D)): increasing as the concentration gradient
TAT-FITC uptake with sucrose and manntiol combination (Caski cells [1]; co-incubated with sucrose and manntiol (100 to 300 mM) 1 h, then TAT-FITC 1 h at 37°C, fluorescence quantitation (Figure 3C)): improved
TAT penetration enhancement, dose ranging (Caski cells [1]; glucose, sucrose, manntiol from 200 to 600 mM, lysate fluorescence 494/518 nm per mg protein (Figure 2B)): dependent on the concentration of glucose, sucrose and manntiol
TAT-FITC penetration efficiency in the presence of glycerol and glycine (Caski cells [1]; [4]): not observed
intracellular delivery efficiency of TAT-FITC with NH4Cl (Caski cells [1]; lysosomotrophic neutralizing agent NH4Cl, in the presence of GSM combination (Figure 7D)): significantly decreased
intracellular delivery efficiency of TAT-FITC with NaN3 (Caski cells [1]; metabolic inhibitor NaN3, in the presence of GSM combination (Figure 7C)): significantly decreased
TAT penetration efficiency with serum (Caski cells [1]; with vs without 10% fetal bovine serum (FBS), GSM combination (Figure 7A)): remains decreased
TAT penetration efficiency with galactose treatment (Caski cells [2]): partially enhance the penetration efficiency
enhancement of TAT-FITC penetration by chloroquine (Caski cells [2]): limited

KIPLPRFKLKCIFCKKRRKR [hPP10, newly found human-derived CPP labeled with FITC]
intracellular fluorescence intensity of FITC-labeled CPPs with GSM combination (Caski cells [1]): facilitate the penetration efficiency

NCC(=O)O [glycine]
penetration enhancing activity on TAT-FITC (Caski cells [1]): no significant penetration enhancing activity
cell viability (MTT) with glycerol and glycine addition during GSM treatment (Caski cells [3]; at 24 h (Figure 4A)): rescue the cell viability
cell viability (MTT) with glycerol and glycine addition during GSM treatment (Caski cells [3]; at 48 h (Figure 4B)): rescue the cell viability
cell viability (MTT) with glycerol and glycine addition during GSM treatment (Caski cells [3]; at 72 h (Figure 4C)): rescue the cell viability

OCC(O)CO [glycerol]
penetration enhancing activity on TAT-FITC (Caski cells [1]; [4]): no significant penetration enhancing activity

RKDRRGGEMMKQKRQRE [NLS]
intracellular fluorescence intensity of FITC-labeled CPPs with GSM combination (Caski cells [1]): facilitate the penetration efficiency
intracellular fluorescence intensity of FITC-labeled CPPs with GSM combination (HepG2 cells): facilitate the penetration efficiency
